Test [1] has as its system human myeloid leukemia cell line HL60. Kind of test: Cell growth test, HL60 (CellTiter-Glo). Format: cell-based. The conditions noted are these: HL-60, 72 h, HL60 cells, 3 days, CellTiter-Glo luminescence, read-out: Cell growth inhibitory effect (GI50). The procedure: The cell growth test was carried out using the human myeloid leukemia cell line HL60 (available from ATCC, CRL-240). As a culture medium of HL60 cells, RPMI 1640 (available from FUJIFILM Wako Pure Chemical Corporation, 189-02025) supplemented with 10% fetal bovine serum (available from Thermo Fisher Scientific, Inc., 10437-028), and 1% penicillin-streptomycin (10,000 U/mL, available from Thermo Fisher Scientific, Inc., 15140-122) was used. HL60 cells were seeded on a 384-well plate (available from Corning Inc., 4588) at a cell density of 1×10^3 cells/20 μL/well. After culturing overnight, 5 μL of the test compound having a predetermined concentration was added, and 3 days later, 25 μL of CellTiter-Glo (registered trademark) Luminescent Cell Viability Assay (available from Promega Corporation, G7573) was added, and then the amount of luminescence was measured using an EnVision plate reader (available from PerkinElmer, Inc.). Since the amount of luminescence is proportional to the intracellular concentration of adenosine triphosphate (ATP), the amount of luminescence was used as an indicator of the number of viable cells. The growth inhibitory concentration for each test compound concentration was calculated by the following expression.
The growth inhibition rate at each test compound concentration was determined, and the 50% growth inhibitory concentration [GI50 (nmol/L)] was calculated using XLfit. Growth inhibition rate (%)=(amount of luminescence in test compound-added well)/(amount of luminescence in DMSO-added well)×100
The abbreviations in the table have the following meanings. • A: GI50 value<100 nmol/L • B: 100 nmol/L≤GI50 value<1,000 nmol/L • C: 1,000 nmol/L≤GI50 value
On the technique in general: ATP-based viability assays read luminescence as a measure of living cells.

The target in the next test is T1, recombinant human DHODH (Homo sapiens, UniProt Q02127).
T1 construct: DHODH, 31-395aa, Human, His tag, E. coli, ATGP1615; His tag; purchased ATGen Co. Ltd. ATGP1615; host or cells: E. coli
T1 sequence (Q02127 31-395): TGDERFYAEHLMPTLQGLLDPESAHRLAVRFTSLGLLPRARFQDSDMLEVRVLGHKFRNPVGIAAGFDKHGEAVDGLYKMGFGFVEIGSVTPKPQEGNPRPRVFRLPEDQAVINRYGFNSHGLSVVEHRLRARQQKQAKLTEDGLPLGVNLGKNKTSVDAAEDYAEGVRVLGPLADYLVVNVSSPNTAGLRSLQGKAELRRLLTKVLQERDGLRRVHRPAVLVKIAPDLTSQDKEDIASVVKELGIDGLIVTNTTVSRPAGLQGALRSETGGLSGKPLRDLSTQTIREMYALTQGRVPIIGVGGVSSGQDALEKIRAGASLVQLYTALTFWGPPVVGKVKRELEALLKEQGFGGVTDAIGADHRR
Kind of test: DHODH enzyme reaction inhibition test (DCIP-coupled assay). Format: biochemical. To be noted: recombinant human DHODH 0.175 μg/mL, DCIP absorbance 600 nm, 50 minutes, pH 8.0; read-out: Enzyme reaction inhibitory effect (IC50). The method, then: The DHODH enzyme assay was carried out with reference to “Benjamin Bader, Wolfgang Knecht, Markus Fries, and Monika Loffler, Expression, Purification, and Characterization of Histidine-Tagged Rat and Human Flavoenzyme Dihydroorotate Dehydrogenase, Protein Expression and Purification, 1998, 13, 414-422.”
The DHODH activity was evaluated using an enzyme assay system that is coupled with an assay in which a blue coloring agent 2,6-dichlorophenolindophenol (DCIP, available from MP Biomedicals, LLC, MP150118) is quenched. Purified recombinant human DHODH (DHODH, 31-395aa, Human, His tag, E. coli, ATGP1615) was purchased from ATGen Co. Ltd. The enzyme assay was carried out in a 384-well plate using a buffer solution containing 100 mmol/L Hepes (available from Dojindo Laboratories, 342-01375), 400 mmol/L NaCl (available from FUJIFILM Wako Pure Chemical Corporation, 191-01665), 10% Glycerol (available from FUJIFILM Wako Pure Chemical Corporation, 075-00616), 0.05% Triton X-100 (available from Sigma-Aldrich Co., LLC, T8787-100ML), 0.2 mmol/L Ubiquinone-10 (available from FUJIFILM Wako Pure Chemical Corporation, 216-00761), 0.1 mmol/L DHO (L-dihydroorotic acid, available from Sigma-Aldrich Co., LLC, D7128), 0.5% DMSO (dimethylsulfoxide, available from FUJIFILM Wako Pure Chemical Corporation, 047-29353), 0.175 μg/mL DHODH, and 0.12 mmol/L DCIP and having a pH adjusted to 8.0 by adding 5 mol/L potassium hydroxide (available from FUJIFILM Wako Pure Chemical Corporation, 168-21815). A test compound with a predetermined concentration was added using Biomek NX (available from Beckman Coulter Inc.), and the enzyme reaction was started by adding the substrate. The enzyme activity was assessed by measuring the decrease in DCIP absorbance (600 nm) for 50 minutes using an EnVision plate-reading spectrophotometer (available from PerkinElmer, Inc.).
The enzyme reaction inhibition rate at each test compound concentration was determined, and the 50% enzyme reaction inhibition concentration [IC50 (nmol/L)] was calculated using XLfit. Enzyme reaction inhibition rate (%)=(amount of luminescence in test compound-added well)/(amount of luminescence in DMSO-added well)×100
The abbreviations in the table have the following meanings. • A: IC50 value<10 nmol/L • B: 10 nmol/L≤IC50 value<100 nmol/L • C: 100 nmol/L≤IC50 value

Take `CCc1c(Nc2ncc(C3CC3)nc2C(=O)NS(C)(=O)=O)cccc1C1CCOCC1` [Example 3-48]: the GI50 in test [1] was in the range of 100 to 1000 nM. The IC50 at recombinant human DHODH was in the range of 10 to 100 nM.

Turning to `CS(=O)(=O)NC(=O)c1nc(C2CC2)cnc1Nc1cccc(C2CCOCC2)c1OC(F)F` [Example 3-49], the GI50 in test [1] is below 100 nM. For the same compound, at recombinant human DHODH, the IC50 is below 10 nM.

Take `OCc1nc(C2CC2)cnc1Nc1cccc(C2=CCOCC2)c1OCC(F)(F)F` [Example 1-3]: the concentration for 50% growth inhibition (GI50) in test [1] lay within 100 to 1000 nM. The half-inhibitory concentration (IC50) on recombinant human DHODH lay within 10 to 100 nM.

In the case of `NC(=O)c1nc(C2CC2)cnc1Nc1cccc(C2=CCOCC2)c1OCC(F)(F)F` [Example 1-1, 6-cyclopropyl-3-((3-(3,6-dihydro-2H-pyran-4-yl)-2-(2,2,2-trifluoroethoxy)phenyl)amino)pyrazine-2-carboxamide], in test [1], the GI50 is below 100 nM. In addition, at recombinant human DHODH, the IC50 lay in the range of 10 to 100 nM.

Regarding `CS(=O)(=O)NC(=O)c1nc(C2CC2)cnc1Nc1cccc(-c2cccc(C#N)c2)c1OCC(F)(F)F` [Example 3-45], the GI50 in test [1] was below 100 nM. The IC50 on recombinant human DHODH was below 10 nM.

Regarding `N#CNCc1nc(C2CC2)cnc1Nc1cccc(C2=CCOCC2)c1OCC(F)(F)F` [Example 1-16, N-((6-cyclopropyl-3-((3-(3,6-dihydro-2H-pyran-4-yl)-2-(2,2,2-trifluoroethoxy)phenyl)amino)pyrazin-2-yl)methyl)cyanamide], the GI50 in test [1] was in the range of 100 to 1000 nM. The IC50 on recombinant human DHODH was 10 to 100 nM.

In the case of `CNS(=O)(=O)NC(=O)c1nc(C2CC2)cnc1Nc1cccc(C2=CCOCC2)c1OCC(F)(F)F` [Example 3-20], the GI50 in test [1] lay within 100 to 1000 nM. Moreover, the concentration for half-maximal inhibition (IC50) on recombinant human DHODH is 10 to 100 nM.

As for `O=C(O)c1cc(C2CC2)ncc1Nc1cccc(C2=CCOCC2)c1OCC(F)(F)F` [Example 2-16], in test [1], the GI50 lay within 100 to 1000 nM. The IC50 on recombinant human DHODH was below 10 nM.

On to `CONC(=O)c1nc(C2CC2)cnc1Nc1cccc(C2=CCOCC2)c1OCC(F)(F)F` [Example 3-5], for which the GI50 in test [1] is below 100 nM. For the same compound, the IC50 on recombinant human DHODH is below 10 nM.

`C[C@H](Oc1c(Nc2ncc(C3CC3)nc2C(=O)NS(C)(=O)=O)cccc1C1=CCCOC1)C(F)(F)F` [Example 3-62]: the GI50 in test [1] lay within 100 to 1000 nM. For the same compound, the IC50 at recombinant human DHODH lay in the range of 10 to 100 nM.

As to `CONC(=O)c1nc(C2CC2)cnc1Nc1cccc(C2CCOCC2)c1O[C@@H](C)C(F)(F)F` [Example 3-12], the GI50 in test [1] was 100 to 1000 nM. Moreover, the IC50 on recombinant human DHODH is 10 to 100 nM.

As for `Cc1cc(C#N)ccc1-c1cccc(Nc2ncc(C3CC3)nc2C(=O)O)c1OCC(F)(F)F` [Example 1-5, 3-((4′-cyano-2′-methyl-2-(2,2,2-trifluoroethoxy)-[1,1′-biphenyl]-3-yl)amino)-6-cyclopropylpyrazine-2-carboxylic acid], the concentration for 50% growth inhibition (GI50) in test [1] was below 100 nM. In addition, the IC50 at recombinant human DHODH is below 10 nM.

As for `CS(=O)(=O)NC(=O)c1nc(C2CC2)cnc1Nc1cccc(-c2ccc(F)cc2)c1OCC(F)(F)F` [Example 3-56], the GI50 in test [1] is below 100 nM. Moreover, the IC50 on recombinant human DHODH was below 10 nM.

As to `CS(=O)(=O)NC(=O)c1cc(C2CC2)cnc1Nc1cc(F)cc(C2CCOCC2)c1OCC(F)(F)F` [Example 3-42], the GI50 in test [1] is below 100 nM. Also, on recombinant human DHODH, the half-maximal inhibitory concentration (IC50) is below 10 nM.

On to `C[C@H](Oc1c(Nc2ccc(C3CC3)cc2C(=O)NS(C)(=O)=O)cncc1C1=CCOCC1)C(F)(F)F` [Example 3-25], for which, in test [1], the GI50 is 100 to 1000 nM. Further, the IC50 at recombinant human DHODH was 10 to 100 nM.

For the compound `N#CNC(=O)c1cc(C2CC2)cnc1Nc1cccc(-c2ccc(C#N)cc2)c1OCC(F)(F)F` [Example 3-39], the GI50 in test [1] was below 100 nM. Besides, the IC50 on recombinant human DHODH is below 10 nM.

Take `NS(=O)(=O)NC(=O)c1cc(C2CC2)cnc1Nc1cccc(C2CCOCC2)c1OCC(F)(F)F` [Example 3-35]: the GI50 in test [1] was below 100 nM. In addition, the IC50 at recombinant human DHODH is below 10 nM.

On to `CS(=O)(=O)NC(=O)c1nc(C2CC2)cnc1Nc1cccc(-c2ccc(C#N)cc2)c1OC(F)F` [Example 3-51], for which the GI50 in test [1] lay in the range of 100 to 1000 nM. Further, the IC50 on recombinant human DHODH was below 10 nM.

For the compound `CC(O)c1nc(C2CC2)cnc1Nc1cccc(C2=CCOCC2)c1OCC(F)(F)F` (stereo not drawn) [Example 1-11, 1-(6-cyclopropyl-3-((3-(3,6-dihydro-2-H-pyran-4-yl)-2-(2,2,2-trifluoroethoxy)phenyl)amino)pyrazin-2-yl)ethan-1-ol], the GI50 in test [1] is at least 1000 nM. In addition, the IC50 on recombinant human DHODH was at least 100 nM.

For `O=C(O)c1cc(C2CC2)cnc1Nc1cc(F)cc(C2CCOCC2)c1OCC(F)(F)F` [Example 2-8], in test [1], the GI50 was below 100 nM. Moreover, the IC50 on recombinant human DHODH was below 10 nM.

On to `NS(=O)(=O)NC(=O)c1nc(C2CC2)cnc1Nc1cccc(C2CCOCC2)c1OC(F)F` [Example 3-50], for which the GI50 in test [1] was below 100 nM. Besides, the IC50 at recombinant human DHODH was below 10 nM.

With `CCS(=O)(=O)NC(=O)c1nc(C2CC2)cnc1Nc1cccc(C2=CCOCC2)c1OCC(F)(F)F` [Example 3-17], in test [1], the GI50 was at least 1000 nM. Besides, the half-inhibitory concentration (IC50) at recombinant human DHODH was in the range of 10 to 100 nM.

As for `CC(=O)c1nc(C2CC2)cnc1Nc1cccc(C2=CCOCC2)c1OCC(F)(F)F` [Example 1-10, 1-(6-cyclopropyl-3-((3-(3,6-dihydro-2H-pyran-4-yl)-2-(2,2,2-trifluoroethoxy)phenyl)amino)pyrazin-2-yl)ethan-1-one], the GI50 in test [1] lay in the range of 100 to 1000 nM. The IC50 at recombinant human DHODH is 10 to 100 nM.

`C[C@H](Oc1c(Nc2ncc(C3CC3)nc2C(=O)NC#N)cccc1C1CCOCC1)C(F)(F)F` [Example 3-14]: the GI50 in test [1] is below 100 nM. On recombinant human DHODH, the IC50 is below 10 nM.

Regarding `N#CNC(=O)c1nc(C2CC2)cnc1Nc1cc(F)cc(C2=CCOCC2)c1OCC(F)(F)F` [Example 3-38], the GI50 in test [1] is below 100 nM. At recombinant human DHODH, the IC50 is below 10 nM.

For `C[C@H](Oc1c(Nc2ccc(C3CC3)cc2C(=O)NS(C)(=O)=O)ccnc1C1=CCOCC1)C(F)(F)F` [Example 3-64], the GI50 in test [1] is 100 to 1000 nM. Also, the IC50 on recombinant human DHODH is 10 to 100 nM.

In the case of `O=C(O)c1cc(C2CC2)cnc1Nc1cc(F)cc(C2CCOCC2)c1OC(F)F` [Example 2-3], the 50% growth inhibitory concentration (GI50) in test [1] was below 100 nM. On recombinant human DHODH, the IC50 is below 10 nM.

In the case of `O=C(NS(=O)(=O)C(F)(F)F)c1nc(C2CC2)cnc1Nc1cccc(C2=CCOCC2)c1OCC(F)(F)F` [Example 3-18], the GI50 in test [1] is at least 1000 nM. Besides, at recombinant human DHODH, the IC50 lay within 10 to 100 nM.

`COS(=O)(=O)NC(=O)c1nc(C2CC2)cnc1Nc1cccc(C2=CCOCC2)c1OCC(F)(F)F` [Example 3-19]: the GI50 in test [1] was in the range of 100 to 1000 nM. Further, the IC50 at recombinant human DHODH was in the range of 10 to 100 nM.

Regarding `CCOc1c(Nc2ncc(C3CC3)cc2C(=O)O)ccc(F)c1C1=CCOCC1` [Example 2-15], the GI50 in test [1] is below 100 nM. In addition, at recombinant human DHODH, the IC50 was below 10 nM.

For the compound `N#CNC(=O)c1nc(C2CC2)cnc1Nc1cccc(C2=CCOCC2)c1OCC(F)(F)F` [Example 3-1], the GI50 in test [1] was below 100 nM. The IC50 at recombinant human DHODH was below 10 nM.

As to `CCOc1c(Nc2ncc(C3CC3)nc2C(=O)NS(C)(=O)=O)cccc1C1=CCOCC1` [Example 3-57], the GI50 in test [1] is below 100 nM. Also, on recombinant human DHODH, the IC50 is below 10 nM.

Turning to `C[C@H](Oc1c(Nc2ncc(C3CC3)nc2C(=O)NC#N)cccc1C1=CCOCC1)C(F)(F)F` [Example 3-31], in test [1], the 50% growth inhibitory concentration (GI50) was below 100 nM. In addition, the IC50 at recombinant human DHODH was below 10 nM.

As usually defined, the GI50 is the concentration at which growth is held to half of that of the control. The term IC50 denotes the point on the concentration scale where inhibition reaches its midpoint.
